Results reported in patent US8999389B2, “Bioresorbable controlled-release composition” (priority 2006, dated 2015).

Test: Intravenous bolus dosing of 2-hydroxyflutamide in dogs, plasma concentration
Format: in vivo, Labrador dogs
Conditions: single intravenous bolus 25 mg
Description: First, an animal study was performed with 4 sexually mature Labrador dogs, aged 1 year, under approval by the Animal Ethics Committee of University of Gothenburg.
The male dogs (Labrador) were first given an intravenous single bolus dose of 2-hydroxyflutamide or 25 mg (10 ml solution) per animal during 30 seconds. The composition of the intravenous solution was sterile saline 54%, sterile polyethyleneglycol 400, 46% and 6% ethanol (95%).
After injection into vena jugularis, blood samples were taken at predetermined time points during 10 hours.

CC(C)(O)C(=O)Nc1ccc([N+](=O)[O-])c(C(F)(F)F)c1 [2-hydroxyflutamide]
time after which plasma concentration was below the detection limit: about 10 hrs
